Results published in patent publication US5674697A, “High sensitivity immunoassay for polychlorinated dibenzo-p-dioxins and polychlorinated dibenzofurans” (priority 1995, dated 1997).
Where two headings read alike, the source gives them in different places.

Columns and labels:
[1] = cited from earlier work; for TEF* (toxic equivalency factor): Table II, congeners of the TEF Mixture native standard
DD-3 antibody = experiment: Direct competitive EIA with immobilized DD-3 monoclonal antibody and competitor-HRP conjugate; assay type: binding, mouse; conditions: for Assay sensitivity compared with the Hapten I enzyme conjugate based assay: analyte 2,3,7,8-TCDD; for Assay sensitivity compared with the Hapten I enzyme conjugate based assay / I50 (pg/well) / I85 (mdl, pg/well): DD-3 antibody; for I50 (pg/well) / I85 (mdl, pg/well): analyte 2,3,7,8-tetrachlorodibenzo-p-dioxin, listed competitor as HRP conjugate
Description: Antibodies can be readily prepared by standard methods. […] M. Vanderlaan, et al., U.S. Pat. No. 4,798,807 (1989).
The competitors A-F (FIG. 2) and Hapten I (FIG. 1) were conjugated to the enzyme, amino modified Horseradish Peroxidase (HRP) (horseradish peroxidase commercially available from Sigma Chemical Co. (No. P-6782), St. Louis, Mo.; amino modified per R. Hsiao and H. Royer, Archives Biochem. Biophys., 198, 379-385 (1979) to give 6-24 free amines), using the carbodiimide mediated carboxyl activation procedure described in Example 7. Hapten and competitor load were determined by UV/Vis spectroscopy, also as described in Example 7.
The direct EIA (immobilized antibody and competitor enzyme conjugate) was performed as follows. Monoclonal antibody supernatant stored at -20° C. was diluted 1,000-40,000 fold with PBS which contained 0.1% Tween-20. This solution was dispensed (500 ul) into donkey anti-mouse second antibody coated tubes (DAM Tubes commercially available from Millipore Corp., Bedford, Mass.) and incubated at room temperature overnight. The antisera solution was decanted from the tubes and the tubes washed 3 times with distilled water. Non-specific sites in the tubes were blocked with 600 ul of BSA blocking buffer (EIA Blocking Buffer commercially available from Millipore Corp., Bedford, Mass.) and incubated for 2 hours at room temperature or overnight at 4° C. The blocking buffer was decanted and the tubes allowed to dry under ambient room conditions for at least 2 hours. The assay was performed by adding 500 ul of assay diluent (1% methanol (v/v) and 0.005% Tween-20 (w/v) in distilled water) to the required number of tubes followed by 10 ul of a methanol solution of the analyte (PCDD or PCDF). After a 5 minute incubation at room temperature, the solution was decanted and the tubes rinsed 3-4 times with tap water. The horseradish peroxidase competitor or Hapten I conjugates were diluted 1,000-60,000 fold from 2-5 mg/ml stock solutions in PBS with conjugate diluent (Enzyme Conjugate Diluent commercially available from Millipore Corp., Bedford, Mass.). The enzyme conjugate (200 ul) was added to the tubes followed by a 5 minute incubation at room temperature. The conjugate solution was decanted and the tubes rinsed 3-4 times with tap water. Enzyme substrate solution (500 ul, KPL No. 50-76-04 commercially available from KPL Laboratories, Gaithersburg, Md.) was added and the tubes were incubated at room temperature for 5-15 minutes. The enzyme reaction was stopped with the addition of 500 ul of 1N HCl. The OD of the solution was determined at 450 nm. The data was plotted using Log (Congener Concentration) versus B/Bo (B=Sample Absorbance, Bo=Sample Blank Absorbance).

[2] = most toxic PCDD/PCDF congeners, reference 2,3,7,8-TCDD = 1.0, S. Safe 1990
[3] = toxicity relative to 2,3,7,8-TCDD
[4] = analyte 2,3,7,8-tetrachlorodibenzofuran, DD-3 and Competitor F

| SMILES | TEF* (toxic equivalency factor) [1] | TEF [1, 2] | further results |
| --- | --- | --- | --- |
| Clc1cc2c(oc3c(Cl)c(Cl)c(Cl)c(Cl)c32)c(Cl)c1Cl [1,2,3,4,6,7,8-HpCDF] | 0.01 | 0.01 | – |
| Clc1cc2c(c(Cl)c1Cl)Oc1c(Cl)c(Cl)c(Cl)c(Cl)c1O2 [1,2,3,4,6,7,8-heptachlorodibenzo-p-dioxin] | – | 0.01 | TEF [1, 3]: 0.01 |
| Clc1cc(Cl)c2c(c1Cl)Oc1c(Cl)c(Cl)c(Cl)c(Cl)c1O2 [1,2,3,4,6,7,9-HpCDD] | 0.01 | 0.01 | – |
| Clc1cc2oc3c(Cl)c(Cl)c(Cl)c(Cl)c3c2c(Cl)c1Cl [1,2,3,4,7,8,9-HpCDF] | 0.01 | 0.01 | – |
| Clc1cc2c(cc1Cl)Oc1c(Cl)c(Cl)c(Cl)c(Cl)c1O2 [1,2,3,4,7,8-HxCDD] | 0.1 | 0.1 | – |
| Clc1cc2oc3c(Cl)c(Cl)c(Cl)c(Cl)c3c2cc1Cl [1,2,3,4,7,8-HxCDF] | 0.1 | 0.1 | – |
| Clc1cc2c(c(Cl)c1Cl)Oc1cc(Cl)c(Cl)c(Cl)c1O2 [1,2,3,6,7,8-HxCDD] | 0.1 | 0.1 | – |
| Clc1cc2c(oc3cc(Cl)c(Cl)c(Cl)c32)c(Cl)c1Cl [1,2,3,6,7,8-HxCDF] | 0.1 | 0.1 | – |
| Clc1cc2c(c(Cl)c1Cl)Oc1c(cc(Cl)c(Cl)c1Cl)O2 [1,2,3,7,8,9-HxCDD] | 0.1 | 0.1 | – |
| Clc1cc2oc3cc(Cl)c(Cl)c(Cl)c3c2c(Cl)c1Cl [1,2,3,7,8,9-HxCDF] | 0.1 | 0.1 | – |
| Clc1cc2c(cc1Cl)Oc1c(cc(Cl)c(Cl)c1Cl)O2 [1,2,3,7,8-PeCDD] | 0.5 | 0.5 | – |
| Clc1cc2oc3cc(Cl)c(Cl)c(Cl)c3c2cc1Cl [1,2,3,7,8-PeCDF] | 0.05 | 0.05 | – |
| Clc1cc2c(oc3c(Cl)c(Cl)c(Cl)cc32)c(Cl)c1Cl [2,3,4,6,7,8-HxCDF] | 0.1 | 0.1 | – |
| Clc1cc2c(cc1Cl)Oc1cc(Cl)c(Cl)cc1O2 [2,3,7,8-TCDD, 2,3,7,8-tetrachlorodibenzo-p-dioxin] | 1 | 1.0 | TEF [1, 3]: 1.0 |
| Clc1cc2oc3cc(Cl)c(Cl)cc3c2cc1Cl [2,3,7,8-TCDF, 2,3,7,8-tetrachlorodibenzofuran] | 0.1 | 0.1 | Factor more sensitive than DD-3 and Hapten I assay system (DD-3 antibody; analyte 2,3,7,8-tetrachlorodibenzofuran, Competitor F versus literature Hapten I assay (Stanker 1987)): ~10; I50 (DD-3 antibody; [4]): 800 pg/well; I85 (mdl) (DD-3 antibody; [4]): 80 pg/well |
| O=C(O)CCCCc1cc(Cl)ccc1Cl [Competitor A, 5-(2,5-dichlorophenyl)pentanoic acid] | – | – | Assay sensitivity compared with the Hapten I enzyme conjugate based assay (DD-3 antibody): significantly more sensitive; I50 (pg/well) (DD-3 antibody): 1,000 pg/well; I85 (mdl, pg/well) (DD-3 antibody): 25 pg/well |
| O=C(O)CCc1ccc(Cl)c(Cl)c1 [Competitor B] | – | – | Assay sensitivity compared with the Hapten I enzyme conjugate based assay (DD-3 antibody): significantly more sensitive; I50 (pg/well) (DD-3 antibody): 350 pg/well; I85 (mdl, pg/well) (DD-3 antibody): 20 pg/well |
| O=C(O)CCCOc1ccc(Cl)cc1Cl [Competitor C] | – | – | Assay sensitivity compared with the Hapten I enzyme conjugate based assay (DD-3 antibody): significantly more sensitive; I50 (pg/well) (DD-3 antibody): 230 pg/well; I85 (mdl, pg/well) (DD-3 antibody): 13 pg/well |
| O=C(O)CCCOc1ccc(Cl)c(Cl)c1 [Competitor D] | – | – | Assay sensitivity compared with the Hapten I enzyme conjugate based assay (DD-3 antibody): significantly more sensitive; I50 (pg/well) (DD-3 antibody): 380 pg/well; I85 (mdl, pg/well) (DD-3 antibody): 15 pg/well |
| O=C(O)CCCSc1cc(Cl)ccc1Cl [Competitor E] | – | – | Assay sensitivity compared with the Hapten I enzyme conjugate based assay (DD-3 antibody): significantly more sensitive; I50 (pg/well) (DD-3 antibody): 380 pg/well; I85 (mdl, pg/well) (DD-3 antibody): 15 pg/well |
| O=C(O)CCCC(=O)c1ccc(Cl)c(Cl)c1 [Competitor F] | – | – | Assay sensitivity compared with the Hapten I enzyme conjugate based assay (DD-3 antibody): significantly more sensitive; I50 (pg/well) (DD-3 antibody): 230 pg/well; I85 (mdl, pg/well) (DD-3 antibody): 13 pg/well |
| Clc1c(Cl)c(Cl)c2c(c1Cl)Oc1c(Cl)c(Cl)c(Cl)c(Cl)c1O2 [OCDD] | 0.001 | 0.001 | – |
| Clc1c(Cl)c(Cl)c2c(oc3c(Cl)c(Cl)c(Cl)c(Cl)c32)c1Cl [OCDF] | 0.001 | 0.001 | – |
